Earlier results in patent US20250250539A1, “METHOD FOR EVALUATING ACTIVITY OF INHIBITING OR PROMOTING AGGREGATION OF AGGREGATING PROTEINS” (KANEKA CORPORATION, priority 2022, published 2025).

System: amyloid β protein
Details: known cell-free evaluation system

## O=C(/C=C/c1ccc(O)c(O)c1)O[C@H](Cc1ccc(O)c(O)c1)C(=O)O [rosmarinic acid]
  activity of inhibiting aggregation: exhibiting activity of inhibiting aggregation
